From ChEMBL document CHEMBL1201862, “PubChem BioAssay data set” (2004)
Where a name gives a salt, the structure may show the parent alone.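 Cells were grown in 96-well plates and exposed to each compound for 48 hours at five concentrations; endpoints were interpolated linearly between bracketing concentrations, or set to the highest concentration if not reached. The concentration for 50% growth inhibition is given as GI50.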 Active and inactive are the calls of the source. No stated cut-off is given here; in the data, active = GI50 up to about 1.1 µM and inactive = higher.

Assays:
Assay in all cases: NCI anticancer screen, dose series, 48 h
[1] = system: M19-MEL
[2] = system: SNB-78
[3] = system: XF498
[4] = system: DLD-1
[5] = system: DMS-114
[6] = system: DMS-273
[7] = system: KM-20L2
[8] = system: HOP-18
[9] = system: RXF 631

With `CC1CC2C(=O)NC(=O)C2c2[nH]c3ccccc3c21` (configuration not stated) the GI50 [1] was > 100 µM (inactive), the GI50 [2] was > 100 µM (inactive) and the GI50 [3] was > 100 µM (inactive). The GI50 [4] was > 100 µM (inactive), the GI50 [5] was 96.2 µM (inactive) and the GI50 [6] was > 100 µM (inactive).

For `CSc1nc(Cl)c(Br)c(Sc2nc(N)nc3nc[nH]c23)n1`, the GI50 [7] was 5.9 µM (inactive), the GI50 [1] was 7.45 µM (inactive) and the GI50 [3] was 15.8 µM (inactive). The GI50 [4] was 11.1 µM (inactive), the GI50 [5] was 4.74 µM (inactive) and the GI50 [6] was 3.14 µM (inactive).

`CCN(CC)CCNC(=O)c1nn(-c2ccc(Cl)cc2)c2c1CCc1cc(OC)ccc1-2` was tested, and the GI50 [7] was 1.64 µM (inactive), the GI50 [8] was 15.2 µM (inactive) and the GI50 [1] was 2.7 µM (inactive). For the same compound, the GI50 [2] was 7.67 µM (inactive), the GI50 [3] was 5.14 µM (inactive) and the GI50 [4] was 3.54 µM (inactive). For the same compound, the GI50 [5] was 2.67 µM (inactive), the GI50 [6] was 2.62 µM (inactive) and the GI50 [9] was 1.65 µM (inactive).

For `CCOC(=O)CC(C)C1(C=O)CCCCC1=O` (configuration not stated), the GI50 [7] was > 100 µM (inactive), the GI50 [8] was > 100 µM (inactive) and the GI50 [1] was > 100 µM (inactive). The GI50 [2] was > 100 µM (inactive), the GI50 [3] was > 100 µM (inactive) and the GI50 [4] was 56 µM (inactive). The GI50 [5] was 23 µM (inactive), the GI50 [6] was 21.1 µM (inactive) and the GI50 [9] was > 100 µM (inactive).

In the case of `COc1ccc(CN2C(=O)[C@@H]3Cc4c(OC)c(C)c(OC)c(OC)c4[C@H](/C2=C\c2cc(OC)c(OC)c(C)c2OC)N3C(=O)OC(C)C)cc1`, the GI50 [7] is reported as > 100 µM (inactive), the GI50 [8] is reported as > 100 µM (inactive) and the GI50 [1] is reported as 42.7 µM (inactive). The GI50 [4] was 69.3 µM (inactive), the GI50 [5] was 7.38 µM (inactive) and the GI50 [6] was 19.3 µM (inactive). The GI50 [9] was > 100 µM (inactive).

In the case of `CC1CC2(CCC1OCc1ccccc1)OCCO2` (configuration not stated), the GI50 [1] is reported as > 100 µM (inactive), the GI50 [2] is reported as > 100 µM (inactive) and the GI50 [3] is reported as > 100 µM (inactive). The GI50 [4] was > 100 µM (inactive), the GI50 [5] was > 100 µM (inactive) and the GI50 [6] was > 100 µM (inactive).

For `CC(=O)O[C@H]1CCC2[C@@H]3CCC4Nc5[nH]ncc5C[C@]4(C)C3CC[C@@]21C` (some centres not stated), the GI50 [7] was 28.1 µM (inactive), the GI50 [8] was > 100 µM (inactive) and the GI50 [1] was 32.7 µM (inactive). For the same compound, the GI50 [3] was 26.2 µM (inactive), the GI50 [5] was 35.8 µM (inactive) and the GI50 [6] was 50.7 µM (inactive). For the same compound, the GI50 [9] was > 100 µM (inactive).

`CC(NC(C)(C)C)C(=O)c1cccc(Cl)c1` (configuration not stated) [BUPROPION HYDROCHLORIDE] was tested, and the GI50 [7] was > 100 µM (inactive), the GI50 [1] was > 100 µM (inactive) and the GI50 [3] was > 100 µM (inactive). For the same compound, the GI50 [4] was > 100 µM (inactive), the GI50 [5] was > 100 µM (inactive) and the GI50 [6] was > 100 µM (inactive). For the same compound, the GI50 [9] was > 100 µM (inactive).

`CCOC(=O)N1CCN(P(=O)(Nc2ccc3[nH]c(NC(=O)OC)nc3c2)Oc2ccccc2)CC1` (configuration not stated) was tested, and the GI50 [7] was > 100 µM (inactive), the GI50 [8] was 87.9 µM (inactive) and the GI50 [1] was > 100 µM (inactive). For the same compound, the GI50 [2] was > 100 µM (inactive), the GI50 [4] was > 100 µM (inactive) and the GI50 [5] was > 100 µM (inactive). For the same compound, the GI50 [6] was > 100 µM (inactive).

In the case of `Cc1nc2c(n1CCO)C(=O)c1ccccc1C2=O`, the GI50 [7] is reported as 33.3 µM (inactive), the GI50 [1] is reported as 2.57 µM (inactive) and the GI50 [2] is reported as 46.5 µM (inactive). For the same compound, the GI50 [3] was 33 µM (inactive), the GI50 [4] was 38.2 µM (inactive) and the GI50 [6] was 20 µM (inactive).

With `Nn1c(-c2cccc(Cl)c2)nc2ccccc2c1=O` the GI50 [7] was > 100 µM (inactive), the GI50 [8] was 68.5 µM (inactive) and the GI50 [2] was > 100 µM (inactive). The GI50 [3] was 23.5 µM (inactive), the GI50 [4] was > 100 µM (inactive) and the GI50 [5] was > 100 µM (inactive). For the same compound, the GI50 [6] was > 100 µM (inactive) and the GI50 [9] was > 100 µM (inactive).

For `COc1ccc2c(c1)CCC1C3(CCCC21C)OCCO3` (configuration not stated), the GI50 [7] was 19.7 µM (inactive), the GI50 [8] was 23.1 µM (inactive) and the GI50 [1] was 18.6 µM (inactive). The GI50 [2] was 19.4 µM (inactive), the GI50 [4] was 15.7 µM (inactive) and the GI50 [6] was 17.5 µM (inactive). For the same compound, the GI50 [9] was 23.9 µM (inactive).

In the case of `COC(=O)C1C(=O)NC2(C)CC1c1ccccc1O2` (configuration not stated), the GI50 [1] is reported as > 100 µM (inactive), the GI50 [2] is reported as > 100 µM (inactive) and the GI50 [3] is reported as > 100 µM (inactive). The GI50 [4] was > 100 µM (inactive), the GI50 [5] was > 100 µM (inactive) and the GI50 [6] was > 100 µM (inactive).

In the case of `Cc1cccc2[s+]snc12`, the GI50 [7] is reported as > 100 µM (inactive), the GI50 [8] is reported as > 100 µM (inactive) and the GI50 [1] is reported as > 60.3 µM (inactive). The GI50 [2] was > 100 µM (inactive), the GI50 [3] was > 100 µM (inactive) and the GI50 [4] was 26.7 µM (inactive). For the same compound, the GI50 [5] was > 58.5 µM (inactive), the GI50 [6] was > 100 µM (inactive) and the GI50 [9] was 19.7 µM (inactive).

In the case of `CN(C)C(=S)/N=c1\ssc(=S)n1C1CCCCC1`, the GI50 [7] is reported as 40.5 µM (inactive), the GI50 [8] is reported as > 100 µM (inactive) and the GI50 [1] is reported as 18.7 µM (inactive). The GI50 [3] was 19.4 µM (inactive), the GI50 [4] was 21.5 µM (inactive) and the GI50 [5] was 13.9 µM (inactive). For the same compound, the GI50 [6] was 28.2 µM (inactive) and the GI50 [9] was 19.5 µM (inactive).

`CNC(=O)NCCCCC(NC(C)=O)C(=O)NCc1ccccc1` (configuration not stated) was tested, and the GI50 [7] was > 100 µM (inactive), the GI50 [1] was > 100 µM (inactive) and the GI50 [2] was > 100 µM (inactive). The GI50 [3] was > 100 µM (inactive), the GI50 [4] was > 100 µM (inactive) and the GI50 [5] was > 100 µM (inactive). For the same compound, the GI50 [6] was > 100 µM (inactive) and the GI50 [9] was > 100 µM (inactive).

For `C[Si](C)(C)c1ccc(-c2sc(-c3ccc([Si](C)(C)C)s3)c3c2C[Si]2(C3)Cc3c(-c4ccc([Si](C)(C)C)s4)sc(-c4ccc([Si](C)(C)C)s4)c3C2)s1`, the GI50 [7] was > 100 µM (inactive), the GI50 [1] was > 100 µM (inactive) and the GI50 [2] was > 100 µM (inactive). The GI50 [3] was > 100 µM (inactive), the GI50 [4] was > 100 µM (inactive) and the GI50 [6] was > 100 µM (inactive). The GI50 [9] was > 100 µM (inactive).

`CC(=O)OCC(OC(C)=O)C(OC(C)=O)C(OC(C)=O)C(=O)CNn1c(-c2ccccc2Cl)nc2ccccc2c1=O` (configuration not stated) was tested, and the GI50 [7] was > 100 µM (inactive), the GI50 [1] was > 100 µM (inactive) and the GI50 [2] was > 100 µM (inactive). The GI50 [5] was > 100 µM (inactive) and the GI50 [6] was > 100 µM (inactive).

In the case of `Nc1ncnc2c1ncn2C1CC(O)C(CO)O1` (configuration not stated), the GI50 [7] is reported as > 100 µM (inactive), the GI50 [1] is reported as > 100 µM (inactive) and the GI50 [2] is reported as > 100 µM (inactive). For the same compound, the GI50 [4] was > 100 µM (inactive), the GI50 [5] was > 100 µM (inactive) and the GI50 [6] was > 100 µM (inactive).

For `CC(=O)CC(=O)OC1CC(C)CCC1C(C)C` (configuration not stated), the GI50 [1] was 34.6 µM (inactive), the GI50 [2] was > 100 µM (inactive) and the GI50 [3] was > 100 µM (inactive). For the same compound, the GI50 [4] was 24.7 µM (inactive), the GI50 [5] was 37.2 µM (inactive) and the GI50 [6] was 41.9 µM (inactive). The GI50 [9] was > 100 µM (inactive).

With `Cc1[nH]c2ccccc2c1C(=O)CC1(O)C(=O)Nc2ccccc21` (configuration not stated) the GI50 [7] was > 100 µM (inactive), the GI50 [1] was > 100 µM (inactive) and the GI50 [2] was 61 µM (inactive). For the same compound, the GI50 [4] was > 100 µM (inactive), the GI50 [6] was > 100 µM (inactive) and the GI50 [9] was > 100 µM (inactive).

In the case of `COc1cc([C@H]2c3[nH]c4ccccc4c3C[C@H]3COC(=O)N32)cc(OC)c1O`, the GI50 [7] is reported as 0.04 µM (active), the GI50 [8] is reported as 64.3 µM (inactive) and the GI50 [2] is reported as 2.3 µM (inactive). The GI50 [3] was 0.0671 µM (active), the GI50 [4] was 0.132 µM (active) and the GI50 [6] was 0.0163 µM (active).

In the case of `O=C(/C=C/c1ccccc1Cl)c1ccc(Cl)c(Cl)c1`, the GI50 [7] is reported as 17.3 µM (inactive), the GI50 [8] is reported as 14.8 µM (inactive) and the GI50 [1] is reported as 16.3 µM (inactive). For the same compound, the GI50 [2] was 16.2 µM (inactive), the GI50 [4] was 15.8 µM (inactive) and the GI50 [6] was 19.9 µM (inactive).

`Nc1ccc(C(=O)CC2(O)C(=O)Nc3ccccc32)cc1` (configuration not stated) was tested, and the GI50 [7] was > 100 µM (inactive), the GI50 [1] was > 100 µM (inactive) and the GI50 [2] was > 100 µM (inactive). The GI50 [3] was > 100 µM (inactive), the GI50 [4] was > 100 µM (inactive) and the GI50 [5] was > 100 µM (inactive). For the same compound, the GI50 [6] was > 100 µM (inactive).

For `O=C(CCc1nnc2s/c(=C\c3ccc(Cl)c(Cl)c3)c(=O)n12)Nc1ccc(Cl)c(Cl)c1`, the GI50 [7] was > 100 µM (inactive), the GI50 [8] was 75.7 µM (inactive) and the GI50 [1] was 64.7 µM (inactive). The GI50 [3] was 38.7 µM (inactive) and the GI50 [5] was 91.2 µM (inactive).

For `C[n+]1cc(C(O)c2ccc3c(c2)OCO3)c2ccccc2c1` (configuration not stated), the GI50 [7] was 45.5 µM (inactive), the GI50 [1] was 40.6 µM (inactive) and the GI50 [2] was 28.6 µM (inactive). The GI50 [4] was 31.8 µM (inactive), the GI50 [5] was 21.9 µM (inactive) and the GI50 [6] was 31.2 µM (inactive). The GI50 [9] was 40.8 µM (inactive).

In the case of `CCOC(=O)C1=C(C)CC2C(=O)OC(=O)C2C1(C)C` (configuration not stated), the GI50 [8] is reported as > 100 µM (inactive), the GI50 [1] is reported as > 100 µM (inactive) and the GI50 [4] is reported as > 100 µM (inactive). The GI50 [5] was > 100 µM (inactive).
